From US5859007A, “CCK or gastrin modulating benzo [b][1,4] diazepines derivatives” (Glaxo Wellcome Inc., priority 1994, dated 1999)

System: isolated guinea pig gallbladder
Assay: Functional activity in isolated guinea pig gallbladder preparation
Assay type: cell-based
Conditions: Cavia porcellus, expressed as % CCK-induced maximal response; for activation at 30 µM: 3 × 10^-5 M test compound, read-out: % Contraction (3 × 10^-5 M); for activation at 1 µM: 1 × 10^-6 M test compound, read-out: %Contraction (1 × 10^-6 M)
Protocol: 3. GUINEA PIG GALL BLADDER ASSAY
Gallbladders are removed from guinea pigs sacrificed by cervical dislocation. The isolated gallbladders are cleaned of adherent connective tissue and cut into two rings from each animal (2-4 mm in length). The rings are subsequently suspended in organ chambers containing a physiological salt solution (118.4 mM NaCl, 4.7 mM KCl, 1.2 mM MgSO4, 2.5 mM CaCl2, 1.2 mM KH2 […], 25 mM NaHCO3, 11.1 mM dextrose). The bathing solution is maintained at 37° C. and aerated with 95% O2 /5% CO2. Tissues are connected via gold chains and stainless steel mounting wires to isometric force displacement transducers (Grass, Model FT03 D). Responses are then recorded on a polygraph (Grass, Model 7E).
Rings are gradually stretched (over a 120 min. period) to a basal resting tension of 1 gm which is maintained throughout the experiment. During the basal tension adjustment period, the rings are exposed to acetylcholine (10^-6 M) four times to verify tissue contractility. The tissues are then exposed to a submaximal dose of sulfated CCK-8 (Sigma, 3×10^-9 M). After obtaining a stable response, the tissues are washed out 3 times rapidly and every 5 to 10 minutes for 1 hour to reestablish a stable baseline.
Compounds are dissolved in dimethylsulfoxide ([…]) followed by a concentration-response curve to sulfated CCK-8 (10^-10 to 10^-6 M) in the presence of the highest dose of the test compound. As a final test, ACH (10 mM) is added to induce maximal contraction. A minimum of three determinations of activity are made for each test compound.

Compound	activation at 30 µM [%]	activation at 1 µM [%]
COc1ccc(N(C(=O)CN2C(=O)C(Cc3n[nH]c4ccccc34)(OC)C(=O)N(c3ccccc3)c3ccccc32)C(C)C)cc1 (stereo not drawn) [Example 43, 2-[3-(1H-Indazol-3-ylmethyl)-3-methoxy-2,4-dioxo-5-phenyl-2,3,4,5-tetrahydro-benzo[b][1,4]diazepin-1-yl]-N-isopropyl-N-(4-methoxy-phenyl) acetamide]	61	–
COc1ccc(N(C(=O)CN2C(=O)C(Cc3nn(C)c4ccccc34)C(=O)N(c3ccccc3)c3ccccc32)C(C)C)cc1 (stereo not drawn) [Example 44, N-Isopropyl-N-(4-methoxy-phenyl)-2-[3-(1-methyl-1H-indazol-3-ylmethyl)-2,4-dioxo-5-phenyl-2,3,4,5-tetrahydro-benzo[b][1,4]diazepin-1-yl]acetamide]	83	57
COc1ccc(N(C(=O)CN2C(=O)C(C)(Cc3nn(C)c4ccccc34)C(=O)N(c3ccccc3)c3ccccc32)C(C)C)cc1 (stereo not drawn) [Example 45, N-Isopropyl-N-(4-methoxy-phenyl)-2-[3-(1-methyl-1H-indazol-3-ylmethyl)-3-methyl-2,4-dioxo-5-phenyl-2,3,4,5-tetrahydro-benzo[b][1,4]diazepin-1-yl]acetamide]	–	57
COc1ccc(N(C(=O)CN2C(=O)C(Cc3nccn3-c3ccccc3)C(=O)N(c3ccccc3)c3ccccc32)C(C)C)cc1 (stereo not drawn) [Example 46, 2-(2,4-Dioxo-5-phenyl-3-(1-phenyl-imidazo-2-yl)methyl-2,3,4,5-tetrahydro-benzo[b][1,4]diazepin-1-yl)-N-isopropyl-N-(4-methoxy)-phenyl acetamide]	6	6
COc1ccc(N(C(=O)CN2C(=O)C(Cc3noc4ccccc34)C(=O)N(c3ccccc3)c3ccccc32)C(C)C)cc1 (stereo not drawn) [Example 47, 2-(3-Benzo[d]isoxazol-3-ylmethyl-2,4-dioxo-5-phenyl-2,3,4,5-tetrahydro-benzo[b][1,4]diazepin-1-yl)-N-isopropyl-N-(4-methoxy-phenyl) acetamide]	–	92
COc1ccc(N(C(=O)CN2C(=O)C(Cc3noc4ncccc34)C(=O)N(c3ccccc3)c3ccccc32)C(C)C)cc1 (stereo not drawn) [Example 48, N-Isopropyl-2-(3-isoxazolo[5,4-b]pyridin-3-ylmethyl-2,4-dioxo-5-phenyl-2,3,4,5-tetrahydro-benzo[b][1,4]diazepin-1-yl)-N-(4-methoxy-phenyl) acetamide]	75	–
COc1ccc(N(C(=O)CN2C(=O)C(Cc3n[nH]c4ncccc34)C(=O)N(c3ccccc3)c3ccccc32)C(C)C)cc1 (stereo not drawn) [Example 50, 2-[2,4-Dioxo-5-phenyl-3-(1H-pyrazolo[3,4-b]pyridin-3-ylmethyl)-2,3,4,5-tetrahydro-benzo[b][1,4]diazepin-1-yl]-N-isopropyl-N-(4-methoxy-phenyl)-acetamide]	94	83
COc1ccc(N(C(=O)CN2C(=O)C(Cc3n[nH]c4c3CCCC4)C(=O)N(c3ccccc3)c3ccccc32)C(C)C)cc1 (stereo not drawn) [Example 51, 2-[2,4-Dioxo-5-phenyl-3-(4,5,6,7-tetrahydro-1H-indazol-3-ylmethyl)-2,3,4,5-tetrahydro-benzo[b][1,4]diazepin-1-yl]-N-isopropyl-N-(4-methoxy-phenyl)-acetamide]	83	82
CC(C)N(C(=O)CN1C(=O)C(Cc2n[nH]c3ccccc23)C(=O)N(c2ccccc2)c2ccccc21)c1ccc(C(F)(F)F)cc1 (stereo not drawn) [Example 52, 2-[3-(1H-Indazol-3-ylmethyl)-2,4-dioxo-5-phenyl-2,3,4,5-tetrahydro-benzo[b][1,4]diazepin-1-yl]-N-isopropyl-N-(4-trifluoromethyl-phenyl)-acetamide]	96	70
COc1ccc(N(C(=O)CN2C(=O)C(Cc3n[nH]c4ccccc34)(OC)C(=O)N(c3cccnc3)c3ccccc32)C(C)C)cc1 (stereo not drawn) [Example 53, 2-[3-(1H-Indazol-3-ylmethyl)-3-methoxy-2,4-dioxo-5-pyridin-3-yl-2,3,4,5-tetrahydro-benzo[b][1,4]diazepin-1-yl]-N-isopropyl-N-(4-methoxy-phenyl)-acetamide]	103	96
COc1ccc(N(C(=O)CN2C(=O)C(Cc3cc(C)nn3Cc3ccccc3)C(=O)N(c3ccccc3)c3ccccc32)C(C)C)cc1 (stereo not drawn) [Example 54, 2-[3-(2-Benzyl-5-methyl-2H-pyrazol-3ylmethyl)-2,4-dioxo-5-phenyl-2,3,4,5-tetrahydro-benzo[b][1,4]diazepin-1-yl]-N-isopropyl-N-(4-methoxy-phenyl)-acetamide]	43	63
COc1ccc(N(C(=O)CN2C(=O)C(Cc3cc(C)n[nH]3)C(=O)N(c3ccccc3)c3ccccc32)C(C)C)cc1 (stereo not drawn) [Example 55, N-Isopropyl-N-(4-methoxy-phenyl)-2-[3-(5-methyl-2H-pyrazol-3ylmethyl)-2,4-dioxo-5-phenyl-2,3,4,5-tetrahydro-benzo[b][1,4]diazepin-1-yl]-acetamide]	–	21
COc1ccc(N(C(=O)CN2C(=O)C(Cn3cnc4ccccc43)C(=O)N(c3ccccc3)c3ccccc32)C(C)C)cc1 (stereo not drawn) [Example 56, 2-(3-Benzoimidazol-1-ylmethyl-2,4-dioxo-5-phenyl-2,3,4,5-tetrahydro-benzo[b][1,4]diazepin-1-yl]-N-isopropyl-N-(4-methoxy-phenyl)-acetamide]	98	90
CC(C)N(C(=O)CN1C(=O)C(Cc2n[nH]c3ccccc23)C(=O)N(c2ccccc2)c2ccccc21)c1ccc(F)cc1 (stereo not drawn) [Example 57, N-(4-Fluoro-phenyl)-2-[3-(1H-indazol-3-ylmethyl)-2,4-dioxo-5-phenyl-2,3,4,5-tetrahydro-benzo[b][1,4]diazepin-1-yl]-N-isopropyl-acetamide]	134	99
COc1ccc(N(C(=O)CN2C(=O)C(Cc3n[nH]c4ccccc34)C(=O)N(c3ccsc3)c3ccccc32)C(C)C)cc1 (stereo not drawn) [Example 58, 2-[3-(1H-Indazol-3-ylmethyl)-2,4-dioxo-5-thiophen-3-yl-2,3,4,5-tetrahydro-benzo[b][1,4]diazepin-1-yl]-N-isopropyl-N-(4-methoxy-phenyl)-acetamide]	95	80
COc1ccc(N(C(=O)CN2C(=O)C(Cc3n[nH]c4ccccc34)C(=O)N(c3cccs3)c3ccccc32)C(C)C)cc1 (stereo not drawn) [Example 59, 2-[3-(1H-Indazol-3-ylmethyl)-2,4-dioxo-5-thiophen-2-yl-2,3,4,5-tetrahydro-benzo[b][1,4]diazepin-1-yl]-N-isopropyl-N-(4-methoxy-phenyl)-acetamide]	102	100
Cc1ccc(N(C(=O)CN2C(=O)C(Cc3n[nH]c4cc(F)ccc34)C(=O)N(c3ccccc3)c3ccccc32)C(C)C)cc1 (stereo not drawn) [Example 60, 2-[3-(6-Fluoro-1H-indazol-3-ylmethyl)-2,4-dioxo-5-phenyl-2,3,4,5,tetrahydro-benzo[b][1,4]diazepin-1-yl]-N-isopropyl-N-p-tolyl-acetamide]	81	94
O=C1C(Cc2n[nH]c3ccccc23)C(=O)N(c2ccccc2)c2ccccc2N1CC(=O)N(c1ccccc1)C1CC1 (stereo not drawn) [Example 61, N-Cyclopropyl-2-[3-(1H-indazol-3-ylmethyl)-2,4-dioxo-5-phenyl-2,3,4,5,tetrahydro-benzo[b][1,4]diazepin-1-yl]-N-phenyl-acetamide]	77	63
COc1ccc(N(C(=O)CN2C(=O)C(Cc3n[nH]c4ccccc34)C(=O)N(c3ccccc3)c3ccccc32)C2CCCC2)cc1 (stereo not drawn) [Example 62, N-Cyclopentyl-2-[3-(1H-indazol-3-ylmethyl)-2,4-dioxo-5-phenyl-2,3,4,5,tetrahydro-benzo[b][1,4]diazepin-1-yl]-N-(4-methoxy-phenyl)-acetamide]	86	96
CC(C)N(C(=O)CN1C(=O)C(Cc2n[nH]c3cc(F)ccc23)C(=O)N(c2ccccc2)c2ccccc21)c1ccc(F)cc1 (stereo not drawn) [Example 63, 2-[3-(6-Fluoro-1H-indazol-3-ylmethyl)-2,4-dioxo-5-phenyl-2,3,4,5,tetrahydro-benzo[b][1,4]diazepin-1-yl]-N-(4-fluoro-phenyl)-N-isopropyl-acetamide]	96	77
CC(=O)n1nc(CC2C(=O)N(CC(=O)N(c3ccc(F)cc3)C(C)C)c3ccccc3N(c3ccccc3)C2=O)c2ccc(F)cc21 (stereo not drawn) [Example 64, 2-[3-(1-Acetyl-6-fluoro-1H-indazol-3-ylmethyl)-2,4-dioxo-5-phenyl-2,3,4,5,tetrahydro-benzo[b][1,4]diazepin-1-yl]-N-(4-fluoro-phenyl)-N-isopropyl-acetamide]	98	67
CC(C)(C)N(C(=O)CN1C(=O)C(Cc2n[nH]c3ccccc23)C(=O)N(c2ccccc2)c2ccccc21)c1ccccc1 (stereo not drawn) [Example 65, N-tert-Butyl-2-[3-(1H-indazol-3-ylmethyl)-2,4-dioxo-5-phenyl-2,3,4,5,tetrahydro-benzo[b][1,4]diazepin-1-yl]-N-phenyl-acetamide]	93	88
